{
  "source": "PubChem BioAssay AID1549",
  "about": "(Sanford-Burnham Center for Chemical Genomics, 2009)",
  "molecular_target": "Influenza A virus M2 proton channel (A/TW/4845/1999 H1N1)",
  "assay": "M2 proton channel binding, NMR based, influenza A virus H1N1 strain (AID 1549)",
  "details": "NMR binding screen, M2 protein",
  "note": "Calls of active or inactive are those of the source. No rule for the calls is given here.",
  "data": [
    {"molecule": "CCCCCCCCCCCC1=C(O)C(=O)C=C(O)C1=O", "values": [
      {"measurement": "Kd", "result": "> 4 mM (inactive)"}
    ]},
    {"molecule": "Cn1ccc(NC(=S)Nc2cccc([N+](=O)[O-])c2)n1", "values": [
      {"measurement": "Kd", "result": "> 4 mM (inactive)"}
    ]},
    {"molecule": "C/C=C1\\[C@H]2C=C(C)C[C@]1(N)c1ccc(=O)[nH]c1C2", "values": [
      {"measurement": "Kd", "result": "> 4 mM (inactive)"}
    ]},
    {"molecule": "CCC(C)C(=O)O[C@@H]1C[C@@]2(C)[C@H](c3ccoc3)OC(=O)CC23OC2(C)OC34[C@H](OC(=O)C(C)C)[C@@]3(O)[C@@H](OC(=O)C5(C)OC5C)[C@@]5(C)C[C@]3(O)[C@@](C)([C@H]5CC(=O)OC)C14O2", "note": "(stereo partly specified)", "values": [
      {"measurement": "Kd", "result": "> 4 mM (inactive)"}
    ]},
    {"molecule": "NCCc1nc2ccccc2[nH]1", "values": [
      {"measurement": "Kd", "result": "> 4 mM (inactive)"}
    ]},
    {"molecule": "Cc1cc(C(=O)Nc2sc(C)c(C)c2C#N)c(C)o1", "values": [
      {"measurement": "Kd", "result": "> 4 mM (inactive)"}
    ]},
    {"molecule": "O=C(c1ccncc1)N1CCN(C(=O)c2ccncc2)CC1", "values": [
      {"measurement": "Kd", "result": "> 4 mM (inactive)"}
    ]},
    {"molecule": "NC(=O)CSc1nnc2ccc(-c3ccccn3)nn12", "values": [
      {"measurement": "Kd", "result": "> 4 mM (inactive)"}
    ]},
    {"molecule": "CSc1nnc2[nH]c(=O)cc(N)n12", "values": [
      {"measurement": "Kd", "result": "> 4 mM (inactive)"}
    ]},
    {"molecule": "CN(C)Cc1c(N)cccc1O", "values": [
      {"measurement": "Kd", "result": "> 4 mM (inactive)"}
    ]},
    {"molecule": "O=C1CC2OCC=C3CN4CC[C@]56c7ccccc7N1C5[C@H]2[C@H]3CC46", "note": "(stereo partly specified)", "values": [
      {"measurement": "Kd", "result": "> 4 mM (inactive)"}
    ]},
    {"molecule": "O=C(Oc1ccc2c(c1)CCC2)N1CCOCC1", "values": [
      {"measurement": "Kd", "result": "> 4 mM (inactive)"}
    ]},
    {"molecule": "O=C1C2CCCCC2C(=O)N1c1nccs1", "note": "(stereo unspecified)", "values": [
      {"measurement": "Kd", "result": "> 4 mM (inactive)"}
    ]},
    {"molecule": "COc1cc2c(cc1OC)C(=O)OC2", "values": [
      {"measurement": "Kd", "result": "> 4 mM (inactive)"}
    ]},
    {"molecule": "CC(C)CCCC(C)C1CCC2C3C[C@@H](O)[C@@]4(O)C[C@@H](O)CC[C@]4(C)C3CC[C@]12C", "note": "(stereo partly specified)", "values": [
      {"measurement": "Kd", "result": "> 4 mM (inactive)"}
    ]},
    {"molecule": "Cc1nc2ccccc2c(=O)n1/N=C/c1ccco1", "values": [
      {"measurement": "Kd", "result": "> 4 mM (inactive)"}
    ]},
    {"molecule": "CC(=O)O[C@@H]1CC2C(C)(CC[C@H](O)C2(C)C)C2CC[C@]3(C)C(=CC(=O)O[C@H]3c3ccoc3)C21C", "note": "(stereo partly specified)", "values": [
      {"measurement": "Kd", "result": "> 4 mM (inactive)"}
    ]},
    {"molecule": "COn1c(=O)c(-c2ccco2)[n+]([O-])c2ccccc21", "values": [
      {"measurement": "Kd", "result": "> 4 mM (inactive)"}
    ]},
    {"molecule": "Cc1ccc(C)n1CCN1CCNCC1", "values": [
      {"measurement": "Kd", "result": "> 4 mM (inactive)"}
    ]},
    {"molecule": "NS(=O)(=O)c1ccc(NC(=S)NC2CC2)cc1", "values": [
      {"measurement": "Kd", "result": "> 4 mM (inactive)"}
    ]},
    {"molecule": "O=C(O)CCN1CCc2ccccc2C1c1ccncc1", "note": "(stereo unspecified)", "values": [
      {"measurement": "Kd", "result": "> 4 mM (inactive)"}
    ]},
    {"molecule": "Cc1ccc(-c2nc(-c3cccnc3)no2)c(C)c1", "values": [
      {"measurement": "Kd", "result": "> 4 mM (inactive)"}
    ]},
    {"molecule": "O=C(O)C1CC(=O)N(C2Cc3ccccc3C2)C1", "note": "(stereo unspecified)", "values": [
      {"measurement": "Kd", "result": "> 4 mM (inactive)"}
    ]},
    {"molecule": "O=C(NCc1ccccc1)c1ccc[n+]([O-])c1", "values": [
      {"measurement": "Kd", "result": "> 4 mM (inactive)"}
    ]},
    {"molecule": "O=c1c2ccccc2nc(-c2ccco2)n1-c1nccs1", "values": [
      {"measurement": "Kd", "result": "> 4 mM (inactive)"}
    ]},
    {"molecule": "Nc1cc(=O)[nH]c(SCC(=O)Nc2nccs2)n1", "values": [
      {"measurement": "Kd", "result": "> 4 mM (inactive)"}
    ]},
    {"molecule": "Cc1cc(C)n(CC(=O)NC2CCCCC2)n1", "values": [
      {"measurement": "Kd", "result": "> 4 mM (inactive)"}
    ]},
    {"molecule": "NC(=O)C1CCN(c2ncnc(N)c2[N+](=O)[O-])CC1", "values": [
      {"measurement": "Kd", "result": "> 4 mM (inactive)"}
    ]},
    {"molecule": "Cc1cccc(OCc2nnc(N)s2)c1", "values": [
      {"measurement": "Kd", "result": "> 4 mM (inactive)"}
    ]},
    {"molecule": "CC(=O)NC1=NN(c2ccccc2)C(=O)C1", "values": [
      {"measurement": "Kd", "result": "> 4 mM (inactive)"}
    ]},
    {"molecule": "CN(C)N1C(=O)C2C3C=CC(O3)C2C1=O", "note": "(stereo unspecified)", "values": [
      {"measurement": "Kd", "result": "> 4 mM (inactive)"}
    ]},
    {"molecule": "OCc1cc(-c2cccs2)on1", "values": [
      {"measurement": "Kd", "result": "> 4 mM (inactive)"}
    ]},
    {"molecule": "Cc1cccc(-n2c(N)cc(=O)[nH]c2=S)c1C", "values": [
      {"measurement": "Kd", "result": "> 4 mM (inactive)"}
    ]},
    {"molecule": "CC(C)CCCC(C)[C@H]1CCC2C3CC=C4C[C@@H](O)CC[C@]4(C)C3CC[C@@]21C", "note": "(stereo partly specified)", "values": [
      {"measurement": "Kd", "result": "> 4 mM (inactive)"}
    ]},
    {"molecule": "Cc1cc(=O)n2[nH]c(COc3ccccc3)nc2n1", "values": [
      {"measurement": "Kd", "result": "> 4 mM (inactive)"}
    ]},
    {"molecule": "Cc1cc(C)n(-c2ccc(N)cc2)n1", "values": [
      {"measurement": "Kd", "result": "> 4 mM (inactive)"}
    ]},
    {"molecule": "COc1ccc2c3c([nH]c2c1)C(C)=NCC3", "values": [
      {"measurement": "Kd", "result": "> 4 mM (inactive)"}
    ]},
    {"molecule": "CC(=O)N1C(=S)NC(=O)/C1=C\\c1cccnc1", "values": [
      {"measurement": "Kd", "result": "> 4 mM (inactive)"}
    ]},
    {"molecule": "CCC(C)C(=O)c1c(O)c(C)c2oc3c(C)c(O)c(C(=O)C(C)CC)c(O)c3c2c1O", "note": "(stereo unspecified)", "values": [
      {"measurement": "Kd", "result": "> 4 mM (inactive)"}
    ]},
    {"molecule": "Cn1c(CSc2nc3ccccc3s2)n[nH]c1=S", "values": [
      {"measurement": "Kd", "result": "> 4 mM (inactive)"}
    ]},
    {"molecule": "O=C(O)c1cccnc1", "values": [
      {"measurement": "Kd", "result": "> 4 mM (inactive)"}
    ]},
    {"molecule": "Cc1cc(C(=O)Nc2ccc3c(c2)OCCO3)c(C)o1", "values": [
      {"measurement": "Kd", "result": "> 4 mM (inactive)"}
    ]},
    {"molecule": "CN1CCN(C(=S)c2ccc(N(C)C)cc2)CC1", "values": [
      {"measurement": "Kd", "result": "> 4 mM (inactive)"}
    ]},
    {"molecule": "CCn1c(-c2c[nH]c3ccccc23)n[nH]c1=S", "values": [
      {"measurement": "Kd", "result": "> 4 mM (inactive)"}
    ]},
    {"molecule": "Nc1cc2ccccc2cn1", "values": [
      {"measurement": "Kd", "result": "> 4 mM (inactive)"}
    ]},
    {"molecule": "Cc1n[nH]c(C)c1NC(=O)c1cccc(F)c1", "values": [
      {"measurement": "Kd", "result": "> 4 mM (inactive)"}
    ]},
    {"molecule": "O=C(O)c1ccc2sccc2c1", "values": [
      {"measurement": "Kd", "result": "> 4 mM (inactive)"}
    ]},
    {"molecule": "Nc1ccc(F)cc1F", "values": [
      {"measurement": "Kd", "result": "> 4 mM (inactive)"}
    ]},
    {"molecule": "OCc1ccncc1", "values": [
      {"measurement": "Kd", "result": "> 4 mM (inactive)"}
    ]},
    {"molecule": "CC1SC(=NC(=O)c2ccco2)NC1=O", "note": "(stereo unspecified)", "values": [
      {"measurement": "Kd", "result": "> 4 mM (inactive)"}
    ]},
    {"molecule": "O=C(O)CCC(=O)NCc1cccnc1", "values": [
      {"measurement": "Kd", "result": "> 4 mM (inactive)"}
    ]},
    {"molecule": "CCn1nnc2c(NCc3ccccn3)ncnc21", "values": [
      {"measurement": "Kd", "result": "> 4 mM (inactive)"}
    ]},
    {"molecule": "CC1=CC2C(CC1=O)C(C)=CCC2C(C)C", "note": "(stereo unspecified)", "values": [
      {"measurement": "Kd", "result": "> 4 mM (inactive)"}
    ]},
    {"molecule": "O=C(NC1CCS(=O)(=O)C1)C1CCCCC1", "note": "(stereo unspecified)", "values": [
      {"measurement": "Kd", "result": "> 4 mM (inactive)"}
    ]},
    {"molecule": "O=C(O)Cn1cc(C(=O)C2CC2)c2ccccc21", "values": [
      {"measurement": "Kd", "result": "> 4 mM (inactive)"}
    ]},
    {"molecule": "Cc1noc(C)c1C(=O)Nc1sc(C)c(C)c1C#N", "values": [
      {"measurement": "Kd", "result": "> 4 mM (inactive)"}
    ]}
  ]
}
